We go through 7 molecules from patent EP3290438A1, “FOOD ALLERGEN EXTRACTS AND METHODS OF PRODUCING AND USING THE SAME” (CONSEJO SUPERIOR DE INVESTIGACIONES CIENTIFICAS, priority 2016, dated 2018).

The test system of data set [1] is IgE in sera from fish-allergic patients. Briefly: Peptide array (SPOT) immunoassay, IgE binding. More on the design: species or system human. As to conditions: sera from ten fish-allergic patients (groups S-I, S-II), 1/10 dilution; 10 nmol/spot. From the text: It was first characterized the sequence elements to address how amyloid formation contributes to the IgE reactivity of Gad m 1. A set of 12-mer overlapping synthetic peptides with an offset of 2 that correspond to the sequence of Gad m 1 was used in an array-based immunoassay (Fig. 6).
This peptide length and surface density (10 nmol/spot) ensures the preservation of amyloid formation (which is conventionally limited to 6 residues), and differs from previous microarrays assays using a 15-mer with an offset of 3 (Perez-Gordo, M. et al. Mol Nutr Food Res 57, 1283-1290, (2013)).
The peptide membranes were assayed using the sera from ten patients who are allergic to fish (Figs. 1, 2). The IgE binding intensity was variable among the tested sera; however, it was possible to identify four major binding regions (I-IV) and two major groups of sera (S-I: S2, S3, S4, S7 and S8; S-II: S1, S5, S6, S12 and S13). […] Of these four regions, region I overlaps the sequence predicted as the cross-β sheet forming (adhesive) segment in helix A, whereas regions III and IV overlap the immunologically reactive sites located on the junctions between the AB and CD domains (residues 33-44) and between the CD and EF domains (residues 65-74) (Martinez, J. et al. Swiss Med Wkly 145, (2015)). Nevertheless, the reactivity of the Ca^2+-binding loop of the EF domain (residues 88-96) and of the C-terminal (residues 95-109) regions was not detected by these sera, as probed by both IgE and IgG4 binding (Fig. 1d) (Perez-Gordo, M. et al. Int Arch Allergy Imm 157, 31-40, (2012)). It merits comment that IgG4 reactivity, which is considered as a protective response in allergy, is largely detected in region IV for both sera groups (Perez-Gordo, M. et al. Int Arch Allergy Imm 157, 31-40, (2012)).
Peptide arrays (SPOT). Dodecapeptides spanning the whole sequence of Gad m 1, with an overlap of ten residues, were solid-phase synthesized and immobilized (≈10 nmol per spot) on an Amino-PEG500-UC540 sheet at the National Centre for Biotechnology (CNB-CSIC, Madrid). Before use, the membranes were rinsed with ethanol, washed three times with TBS (25 mM Tris-HCl, pH 7.5, containing 137 mM NaCl and 2.7 mM KCI), and incubated in TBS containing 1% BSA (w/v) and 2 mM EDTA for 1 h. The membranes were then probed for 2 h with sera from patients who are allergic to fish (1/10 dilution) and the anti-amyloid fibril OC antibody (AB2286 Merck Millipore, 1/2000 dilution), prepared in TBST (TBS containing 0.05% Tween-20) supplemented with 0.5% BSA (w/v) or with rGad m 1 chains (2.5 µM) in TBS. After extensive washes with TBST, a 30 min incubation with either horseradish peroxidase-labeled anti-human IgE (Abcam ab99806, 1/2000 dilution), anti-human IgG4 (Abcam ab99823, 1/4000 dilution), goat anti-rabbit IgG (Sigma, 1/5000 dilution) or anti-6X His tag® antibody (Abcam ab18184, dilution 1/1000) was performed. The signal was developed with the ECL-Western-blotting reagent (Bio-Rad) and detected with a ChemiDoc XRS instrument (Martinez, J. et al. Swiss Med Wkly 145, (2015)). When required, the membranes were regenerated by sequential incubation with TBS containing 8M urea, 1% SDS and 0.5% β-mercaptoethanol for 30 min at 55 °C and three times with acetic acid/ethanol/Milli-Q water (10:50:40). Regions were considered major allergenic epitopes when at least two overlapping peptides were involved. […]

A short description of data set [2]: Peptide array membranes probed with thioflavin T (ThT). The class given is physicochemical. On the procedure:
The presence of amyloid folds was then assayed using the conformation-selective OC antibody, which detects oligomer and fibril assemblies produced during the protein fibrillization process and the amyloid probe thioflavin T (ThT) (Kayed, R. et al. Molecular neurodegeneration 2, 18, (2007)). […] Of these regions, peptides 2 and 41 overlap the adhesive segments in helix A and E, predicted by the ZipperDB algorithm (Goldschmidt, L., et al. Proceedings of the National Academy of Sciences of the United States of America 107, 3487-3492, (2010)), peptides 12-16 and 34 lie over the IgE-binding regions III and IV, peptide 24 contains part of the Ca^2+-binding site of domain CD, and peptide 49 corresponds to a previously described epitope groups (Perez-Gordo, M. et al. Mol Nutr Food Res 57, 1283-1290, (2013)) (Fig. 2 and Fig. 7). […] It must be noted that peptides containing the helix C sequence, which was predicted to be an adhesive segment, were not detected by either the OC or ThT binding assays.

Data set [3] addresses T1, Gad m 1 peptide 12 (12-mer overlapping synthetic peptide) (Atlantic cod).
T1 construct: Immobilized on the SPOT membrane, about 10 nmol per spot
T1 peptide: GSFDHKAFFTKV
In words: SPOT peptide array incubated with rGad m 1 chains (2.5 µM), anti-6XHis detection.

Data set [4] addresses T2, Gad m 1 peptide 13 (12-mer overlapping synthetic peptide) (Atlantic cod).
T2 construct: Immobilized on the SPOT membrane, about 10 nmol per spot
T2 peptide: FDHKAFFTKVGL
The description is as above.

In data set [5] the target is T3, Gad m 1 peptide 14 (12-mer overlapping synthetic peptide) (Atlantic cod).
T3 construct: Immobilized on the SPOT membrane, about 10 nmol per spot
T3 peptide: HKAFFTKVGLAA
Described as above.

Data set [6] addresses T4, Gad m 1 peptide 15 (12-mer overlapping synthetic peptide) (Atlantic cod).
T4 construct: Immobilized on the SPOT membrane, about 10 nmol per spot
T4 peptide: AFFTKVGLAAKS
The description is as above.

Consider “1: 12-mer overlapping synthetic peptide of the Gad m 1 sequence, SEQ ID NO: 1 (MAFAGILNDADI) [compound 1]”, for which the IgE binding result in data set [1] is “only recognized by the sera group S-II”.
On the same count and under the same terms, with “6: 12-mer overlapping synthetic peptide of the Gad m 1 sequence, SEQ ID NO: 6 (DITAALAACKAE) [compound 6]” the entry was “only recognized by the sera group S-II”; with “7: 12-mer overlapping synthetic peptide of the Gad m 1 sequence, SEQ ID NO: 7 (TAALAACKAEGS) [compound 7]”, “only recognized by the sera group S-II”.
“12: 12-mer overlapping synthetic peptide of the Gad m 1 sequence, SEQ ID NO: 12 (GSFDHKAFFTKV) [compound 12]”: the ThT fluorescence emission result in data set [2] was “increased fluorescence emission”.
As to “18: 12-mer overlapping synthetic peptide of the Gad m 1 sequence, SEQ ID NO: 18 (GLAAKSSADIKK) [compound 18]”, the IgE binding entry in data set [1] is “variable recognition by the distinct sera”.
In the case of “19: 12-mer overlapping synthetic peptide of the Gad m 1 sequence, SEQ ID NO: 19 (AAKSSADIKKVF) [compound 19]”, the IgE binding entry in data set [1] is listed as “variable recognition by the distinct sera”.

B1: rGad m 1 wt, amyloid fibrils (formed in 5 mM EDTA) (other)
chain: AFAGILNDADITAALAACKAEGSFDHKAFFTKVGLAAKSSADIKKVFEIIDQDKSDFVEEDELKLFLQNFSAGARALSDAETKVFLKAGDSDGDGKIGVDEFGAMIKA
notes: Same chain as the wt monomer, in the amyloid state; also called wt-F; rGad m 1 amyloids; not shown: N-terminal histidine tag of the pET15b construct
For the molecule B1, the binding result in data set [3], in data set [4], in data set [5] and in data set [6] was “binds” in each case.
